Laboratory results: patent publication US20250009841A1, “Methods of Diagnosing and Managing Bleeding Disorders” (Emory University, priority 2023, published 2025)

B1: abciximab (antibody, chains of the INN, looked up, V domains shown)
VH: EVQLQQSGTVLARPGASVKMSCEASGYTFTNYWMHWVKQRPGQGLEWIGAIYPGNSDTSYIQKFKGKAKLTAVTSTTSVYMELSSLTNEDSAVYYCTLYDGYYVFAYWGQGTLVTVSA
VL: EIVLTQSPVTLSVTPGDSVSLSCRASRDISNNLHWFQQTSHESPRLLIKYASQSMSGIPSRFSGSGSGTDFTLSINSVETEDFGMYFCQQTNSWPYTFGGGTKLEIK

Test system: healthy donor platelets
Assay: Monoclonal antibody contraction experiments on the platelet contraction cytometer
Assay type: cell-based, human
Details: 2.5 μg/mL monoclonal antibody
Procedure: Blood was drawn into acid-citrate-dextrose (ACD) solution 2 (VWR) and was subsequently centrifuged at 150 G for 15 min without brake and the resulting platelet rich plasma (PRP) was centrifuged again with an additional 10% ACD by volume at 900 G for 5 min without brake. The supernatant, platelet poor plasma, was discarded or utilized to isolate patient polyclonal IgG antibodies. The platelet pellet was resuspended into HEPES modified buffer and was gel filtered into this same buffer using a gel filtration column. Platelets were then diluted to 2 million/mL prior to contraction cytometry to reduce paracrine signaling and minimize platelet aggregate formation.
Each contraction cytometer contains large arrays of fibrinogen microdots pairs that are patterned onto a polyacrylamide hydrogel with a stiffness of about 75 k Pa. […] These values for microdot size and spacing ensured that platelets preferentially attached to the microdots and were able to spread to neighboring microdot in the microdot pair and contract. […]
Platelet contraction was imaged on a confocal microscope using a 20×/0.8 NA lens. […] Images were analyzed using a script which calculated the center-to-center distance between fibrinogen microdots. […] Traction forces (T) of individual platelets were calculated as: T=2πGa (xs−xf)/2−v. […]

Row | Molecule | effect on platelet contractile force (15 minutes prior to thrombin activation) | effect on platelet adhesion (fibrinogen microdots)
1 | PAC-1 | lowers contractile forces | 
2 | B1 |  | blocks adhesion
